From patent US20100168008A1, “METHOD OF USE OF EPIREGULIN PROTEIN AND NUCLEIC ACID ENCODING THE SAME IN INFLAMMATORY CONDITIONS” (PIRAMAL LIFE SCIENCES LIMITED., priority 2006, published 2010)

Legend:
EREG expression in PBMCs = EREG expression in PBMCs after exposure to anti-inflammatory agent, microarray based expression profiling; assay type: cell-based, Human
Experimental: Exposure of PBMCs to P979 and Rolipram: Human peripheral blood leukocytes were obtained from normal blood donors by density gradient separation, washed with PBS (phosphate buffered saline), and plated on petri dishes using RPMI medium. Cells were treated for 30 minutes with test compounds at concentrations 0.3, 1.0 and 3.0 μM and with Rolipram at 300 μM as a control as shown in the results section and subsequently activated with bacterial lipopolysaccharide (LPS). After 2 hours, cells were harvested and RNA was prepared.
Preparation of RNA: RNA was prepared by adding 1 ml of trizol reagent (Sigma) subsequently purified using Qiagen-RNAEasy kit, using the instruction from manufacturer's protocol. Quality and quantity of RNA was measured by spectrometry and gel electrophoresis.
Gene expression profiling by microarray: A total of 10 μg of RNA was used to generate cRNA, which is subsequently labeled with Cy3 or Cy5 fluorescent dyes. Control and test cRNAs labeled with Cy3 and Cy5 respectively were pooled and hybridized to DNA chip. […] Following image analysis, image intensity for each of the 23, 290 spots were measured for test and control slides.
Gene expression was expressed as a ratio of the image intensity between test and control slide for a given gene (Table 3). […]

EREG expression in PBMC = EREG expression in PBMC by real time polymerase chain reaction (RT-PCR); assay type: cell-based, Human; settings: 10 μM drug
Experimental: Exposure of PBMCs to P979 and Rolipram: Human peripheral blood leukocytes were obtained from normal blood donors by density gradient separation, washed with PBS (phosphate buffered saline), and plated on petri dishes using RPMI medium. […] After 2 hours, cells were harvested and RNA was prepared.
Real Time Polymerase Chain Reaction (RT-PCR): To confirm the data obtained from microarray, we performed RT-PCR using specific primers for epiregulin gene.
EREG expression in PBMCs after exposure to anti-inflammatory agent was confirmed by real time polymerase chain reaction (RT-PCR). Microarray based gene expression profiling studied large-scale gene expression. RT PCR focused on the gene/genes of interest and expression analysis was carried out under similar experimental conditions.
The aliquot of RNA samples as used for microarray study was used for RT-PCR analysis. The experiment was carried out using cMaster™ RTplusPCR System kit from Eppendorf using the protocol as provided in the kit. Briefly, cDNA was synthesized using RNA from various sources as shown in the results and subsequently quantified during amplification step by incorporation of Syber green dye into the amplicons.

## COc1ccc(C2CNC(=O)C2)cc1OC1CCCC1 (stereo not drawn) [Rolipram]
EREG expression in PBMCs; 300 μM drug, 30 minutes, then LPS activation, harvested after 2 hours
  Ratio intensity (EREG expression, test vs control slide): 1.03
EREG expression in PBMCs; microarray
  expression of epiregulin gene up-regulated (in words): not
EREG expression in PBMC
  Log-fold Change (EREG expression): 1.2
